The results in this text go back to ChEMBL document CHEMBL4396872, “Pharmacokinetics-Driven Optimization of 4(3 H)-Pyrimidinones as Phosphodiesterase Type 5 Inhibitors Leading to TPN171, a Clinical Candidate for the Treatment of Pulmonary Arterial Hypertension” (J Med Chem, 2019).

The structures appear in SMILES notation. The source made the active and inactive calls. Bounds are passed on as bounds.

The species entered for one data set is Homo sapiens. Nature of the data set: Selectivity ratio of IC50 for N-terminal GST-tagged human PDE6C to IC50 for N-terminal GST-tagged human PDE5A1.
Data set [1] concerns Rattus norvegicus. Nature of the data set: […] activity in MCT-induced pulmonary arterial hypertension Sprague-Dawley rat model assessed as reduction in mean pulmonary artery pressure at 1 mg/kg administered once daily for 21 days starting from 21 days post-MCT challenge by right cardiac catheter method. The data set is classed as functional, organism-based.

The subject of data set [2] is Rattus norvegicus. Nature of the data set: […] activity in MCT-induced pulmonary arterial hypertension Sprague-Dawley rat model assessed as reduction in mean pulmonary artery pressure at 100 mg/kg administered once daily for 21 days starting from 21 days post-MCT challenge by right cardiac catheter method. The class given is functional, organism-based.

Data set [3] relates to Rattus norvegicus. Nature of the data set: […] activity in MCT-induced pulmonary arterial hypertension Sprague-Dawley rat model assessed as reduction in mean pulmonary artery pressure at 25 mg/kg administered once daily for 21 days starting from 21 days post-MCT challenge by right cardiac catheter method. The class given is functional, organism-based.
Data set [4] in a line: Metabolic stability in human liver microsomes assessed as parent compound remaining at 1 uM in presence of NADPH after 30 mins by LC-MS/MS analysis. The data set is classed as ADME, Microsome. Conditions: read-out: Stability.
The target of data set [5] is cGMP-specific 3',5'-cyclic phosphodiesterase (Homo sapiens, UniProt O76074). Kind of data set: Inhibition of N-terminal GST-tagged human PDE5A1 expressed in baculovirus infected sf9 cells using [3H]cGMP as substrate measured after 30 mins by scintillation proximity assay. Background: In a scintillation proximity assay essentially only radioactivity close to the scintillant gives light.

Data set [6] deals with Rattus norvegicus. Kind of data set: Antihypertensive activity in spontaneously hypertensive rat assessed as reduction in mean arterial pressure at 20 mg/kg administered via single gavage measured up to 24 hrs. The class given is functional, organism-based.
A short description of data set [7]: Volume of distribution at steady state in iv dosed rat. The settings on record: in vivo. The data set is classed as ADME, organism-based.
Another data set has as its target Phosphodiesterase 1 (Homo sapiens, UniProt P54750+Q01064+Q14123). Kind of data set: Inhibition of N-terminal GST-tagged human PDE1 expressed in baculovirus infected sf9 cells using [3H]cAMP as substrate measured after 30 mins by scintillation proximity assay.
The target in data set [8] is High affinity cGMP-specific 3',5'-cyclic phosphodiesterase 9A (Homo sapiens, UniProt O76083). Kind of data set: Inhibition of N-terminal GST-tagged full length human PDE9A2 expressed in baculovirus infected sf9 cells using [3H]cGMP as substrate measured after 30 mins by scintillation proximity assay.
High affinity cGMP-specific 3',5'-cyclic phosphodiesterase 9A, sequence (O76083 whole entry): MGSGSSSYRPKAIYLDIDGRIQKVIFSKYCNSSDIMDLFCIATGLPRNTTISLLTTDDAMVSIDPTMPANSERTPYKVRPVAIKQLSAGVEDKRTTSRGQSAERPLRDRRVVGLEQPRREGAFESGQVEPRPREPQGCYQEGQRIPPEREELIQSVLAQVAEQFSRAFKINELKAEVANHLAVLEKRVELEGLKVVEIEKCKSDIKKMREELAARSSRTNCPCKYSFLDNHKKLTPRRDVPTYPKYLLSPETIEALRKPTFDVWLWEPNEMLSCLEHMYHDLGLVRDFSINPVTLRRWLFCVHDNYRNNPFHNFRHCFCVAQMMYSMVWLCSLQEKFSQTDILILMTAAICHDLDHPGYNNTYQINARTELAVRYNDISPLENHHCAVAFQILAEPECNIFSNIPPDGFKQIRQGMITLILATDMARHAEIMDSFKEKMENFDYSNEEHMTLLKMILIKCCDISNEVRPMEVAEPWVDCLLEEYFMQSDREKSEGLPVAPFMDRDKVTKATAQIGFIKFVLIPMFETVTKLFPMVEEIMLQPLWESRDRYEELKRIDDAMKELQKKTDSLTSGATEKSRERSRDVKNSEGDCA
The next data set concerns the target Phosphodiesterase 3 (Homo sapiens, UniProt Q14432+Q13370). Nature of the data set: Inhibition of N-terminal GST-tagged human PDE3 expressed in baculovirus infected sf9 cells using [3H]cAMP as substrate measured after 30 mins by scintillation proximity assay.
The nature of data set [9]: Clearance in iv dosed rat. The data set is classed as ADME, organism-based. The settings on record: in vivo.
Data set [10] concerns the target High affinity cAMP-specific and IBMX-insensitive 3',5'-cyclic phosphodiesterase 8A (Homo sapiens, UniProt O60658). Kind of data set: Inhibition of N-terminal GST-tagged full length human PDE8A1 expressed in baculovirus infected sf9 cells using [3H]cAMP as substrate measured after 30 mins by scintillation proximity assay.
For data set [11], the target named is cAMP and cAMP-inhibited cGMP 3',5'-cyclic phosphodiesterase 10A (Homo sapiens, UniProt Q9Y233). Kind of data set: Inhibition of N-terminal GST-tagged human PDE10A expressed in baculovirus infected sf9 cells using [3H]cAMP as substrate measured after 30 mins by scintillation proximity assay.
cAMP and cAMP-inhibited cGMP 3',5'-cyclic phosphodiesterase 10A, sequence (Q9Y233 whole entry): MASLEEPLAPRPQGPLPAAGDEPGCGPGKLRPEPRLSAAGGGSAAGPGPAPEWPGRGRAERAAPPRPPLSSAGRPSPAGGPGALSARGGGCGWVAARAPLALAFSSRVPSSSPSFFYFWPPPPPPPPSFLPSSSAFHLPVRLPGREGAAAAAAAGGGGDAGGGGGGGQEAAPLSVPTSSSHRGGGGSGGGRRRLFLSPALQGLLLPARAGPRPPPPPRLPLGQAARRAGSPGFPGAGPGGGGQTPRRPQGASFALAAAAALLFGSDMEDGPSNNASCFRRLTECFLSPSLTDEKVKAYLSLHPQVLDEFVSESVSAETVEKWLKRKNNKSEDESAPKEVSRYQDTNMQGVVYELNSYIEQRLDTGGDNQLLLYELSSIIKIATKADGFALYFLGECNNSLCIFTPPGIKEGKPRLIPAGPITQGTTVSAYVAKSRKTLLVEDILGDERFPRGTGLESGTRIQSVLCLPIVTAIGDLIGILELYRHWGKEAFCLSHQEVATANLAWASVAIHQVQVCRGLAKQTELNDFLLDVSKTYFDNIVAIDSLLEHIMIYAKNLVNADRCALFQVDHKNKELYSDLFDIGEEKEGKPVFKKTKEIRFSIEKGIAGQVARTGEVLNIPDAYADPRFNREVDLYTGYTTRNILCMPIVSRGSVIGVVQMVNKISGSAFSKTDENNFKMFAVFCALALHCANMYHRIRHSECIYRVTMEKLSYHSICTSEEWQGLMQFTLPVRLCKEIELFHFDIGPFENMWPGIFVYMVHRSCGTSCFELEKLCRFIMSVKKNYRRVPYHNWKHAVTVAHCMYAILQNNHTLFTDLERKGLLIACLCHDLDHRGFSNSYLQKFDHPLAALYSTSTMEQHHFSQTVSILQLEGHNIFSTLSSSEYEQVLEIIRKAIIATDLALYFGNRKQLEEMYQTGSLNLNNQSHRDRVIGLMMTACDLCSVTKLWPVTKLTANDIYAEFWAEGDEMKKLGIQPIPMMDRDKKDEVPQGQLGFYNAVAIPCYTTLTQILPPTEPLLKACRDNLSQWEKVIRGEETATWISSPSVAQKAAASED
The target of data set [12] is cGMP-dependent 3',5'-cyclic phosphodiesterase (Homo sapiens, UniProt O00408). Kind of data set: Inhibition of human PDE2A1 expressed in baculovirus infected sf9 cells using [3H]cAMP as substrate measured after 30 mins by scintillation proximity assay.
cGMP-dependent 3',5'-cyclic phosphodiesterase, sequence (O00408 whole entry): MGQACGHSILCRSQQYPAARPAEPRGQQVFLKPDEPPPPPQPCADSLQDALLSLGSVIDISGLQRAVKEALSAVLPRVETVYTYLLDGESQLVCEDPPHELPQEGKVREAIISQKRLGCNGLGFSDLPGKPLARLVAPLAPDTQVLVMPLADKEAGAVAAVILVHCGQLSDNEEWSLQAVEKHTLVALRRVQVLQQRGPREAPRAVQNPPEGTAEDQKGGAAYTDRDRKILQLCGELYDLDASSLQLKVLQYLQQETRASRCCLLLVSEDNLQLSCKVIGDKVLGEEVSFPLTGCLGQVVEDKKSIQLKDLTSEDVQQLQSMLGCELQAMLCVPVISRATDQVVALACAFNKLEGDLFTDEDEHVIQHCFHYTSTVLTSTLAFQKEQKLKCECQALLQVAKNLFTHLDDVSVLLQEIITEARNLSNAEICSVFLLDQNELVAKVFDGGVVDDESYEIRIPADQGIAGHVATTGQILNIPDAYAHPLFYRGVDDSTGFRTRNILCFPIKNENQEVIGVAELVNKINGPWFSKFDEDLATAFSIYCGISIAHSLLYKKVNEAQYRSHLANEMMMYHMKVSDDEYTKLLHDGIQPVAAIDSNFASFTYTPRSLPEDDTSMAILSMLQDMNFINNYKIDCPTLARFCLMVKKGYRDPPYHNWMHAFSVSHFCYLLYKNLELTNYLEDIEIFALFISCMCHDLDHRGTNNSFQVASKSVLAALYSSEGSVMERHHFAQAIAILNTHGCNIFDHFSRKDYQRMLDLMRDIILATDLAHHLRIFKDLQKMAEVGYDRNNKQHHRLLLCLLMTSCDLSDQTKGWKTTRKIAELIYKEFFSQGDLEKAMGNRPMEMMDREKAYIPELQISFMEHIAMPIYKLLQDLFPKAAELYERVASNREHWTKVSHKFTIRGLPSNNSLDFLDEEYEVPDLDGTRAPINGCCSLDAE
The target of a further data set is Phosphodiesterase 7 (Homo sapiens, UniProt Q13946+Q9NP56). Kind of data set: Inhibition of N-terminal GST-tagged human PDE7 expressed in baculovirus infected sf9 cells using [3H]cAMP as substrate measured after 30 mins by scintillation proximity assay.
Data set [13] is described as follows: Half-life in Sprague-Dawley rat at 4 mg/kg, iv measured up to 24 hrs by HPLC analysis. The class given is ADME, organism-based. Conditions: in vivo.
Data set [14] can be described thus: Oral bioavailability in Sprague-Dawley rat at 1 mg/kg measured up to 24 hrs by HPLC analysis. The class given is ADME, organism-based. Conditions: in vivo.
The nature of data set [15]: Clearance in Sprague-Dawley rat at 4 mg/kg, iv measured up to 24 hrs by HPLC analysis. The class given is ADME, organism-based. Conditions: in vivo.
Data set [16] in a line: Half-life in Sprague-Dawley rat at 1 mg/kg, po measured up to 24 hrs by HPLC analysis. Conditions: in vivo. The class given is ADME, organism-based.
Data set [17] concerns Rattus norvegicus. Kind of data set: Antihypertensive activity in spontaneously hypertensive rat assessed as reduction in mean arterial pressure at 20 mg/kg administered via single gavage after 6 hrs. The class given is functional, organism-based.
Data set [18] is described as follows: Cmax in Sprague-Dawley rat at 1 mg/kg, po measured up to 24 hrs by HPLC analysis. The settings on record: in vivo. The arrangement: dose 1 mg/kg, route oral. The data set is classed as ADME, organism-based.
Data set [19] is described as follows: Tmax in Sprague-Dawley rat at 1 mg/kg, po measured up to 24 hrs by HPLC analysis. The settings on record: in vivo. The class given is ADME, organism-based.
The test system of data set [20] is Rattus norvegicus. Nature of the data set: Antihypertensive activity in spontaneously hypertensive rat assessed as reduction in mean arterial pressure at 20 mg/kg administered via single gavage and measured at 2 hrs. The class given is functional, organism-based.
Data set [21] relates to Rattus norvegicus. Nature of the data set: Antihypertensive activity in spontaneously hypertensive rat assessed as reduction in mean arterial pressure at 20 mg/kg administered via single gavage and measured at 4 hrs. The data set is classed as functional, organism-based.
Data set [22] in a line: Volume of distribution at steady state in Sprague-Dawley rat at 4 mg/kg, iv measured up to 24 hrs by HPLC analysis. The class given is ADME, organism-based. Conditions: in vivo, read-out: Vdss.

High affinity cAMP-specific and IBMX-insensitive 3',5'-cyclic phosphodiesterase 8A, sequence (O60658 whole entry): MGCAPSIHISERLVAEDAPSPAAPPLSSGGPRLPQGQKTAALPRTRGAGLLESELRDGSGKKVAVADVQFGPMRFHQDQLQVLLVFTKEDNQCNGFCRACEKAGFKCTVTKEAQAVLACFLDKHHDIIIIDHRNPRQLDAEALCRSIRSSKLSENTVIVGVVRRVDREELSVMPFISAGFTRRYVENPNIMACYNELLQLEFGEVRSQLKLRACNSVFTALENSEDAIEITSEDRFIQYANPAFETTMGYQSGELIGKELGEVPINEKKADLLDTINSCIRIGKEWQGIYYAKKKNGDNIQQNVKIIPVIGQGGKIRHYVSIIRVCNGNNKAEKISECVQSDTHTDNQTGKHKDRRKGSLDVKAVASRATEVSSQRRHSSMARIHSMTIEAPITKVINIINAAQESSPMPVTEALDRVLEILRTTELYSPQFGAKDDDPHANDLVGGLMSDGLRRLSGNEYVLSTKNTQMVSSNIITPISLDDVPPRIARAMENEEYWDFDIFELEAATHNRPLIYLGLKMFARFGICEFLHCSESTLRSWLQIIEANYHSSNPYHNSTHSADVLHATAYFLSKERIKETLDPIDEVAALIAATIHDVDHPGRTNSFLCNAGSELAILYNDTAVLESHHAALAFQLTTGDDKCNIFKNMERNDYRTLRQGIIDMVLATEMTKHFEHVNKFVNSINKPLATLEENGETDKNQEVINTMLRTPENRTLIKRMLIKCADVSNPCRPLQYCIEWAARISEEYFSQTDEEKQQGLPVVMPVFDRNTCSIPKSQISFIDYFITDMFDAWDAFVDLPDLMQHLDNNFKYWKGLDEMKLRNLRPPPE

For `CCCOc1ccc(NC(N)=O)cc1-c1nc(CC)c(CC)c(=O)[nH]1`, the Ratio IC50 in the data set listed under Homo sapiens was found to be 17.

Consider `COc1ccccc1Oc1c(NS(=O)(=O)c2ccc(C(C)(C)C)cc2)nc(-c2ncccn2)nc1OCCO`, for which the result with Rattus norvegicus [1], in the data set on Rattus norvegicus [2] and in the data set on Rattus norvegicus [3] was Active.

Broadly, the IC50 is the concentration needed to halve the response being measured. Low values mean greater potency in that assay, high ones weaker potency in that assay. Take `CCCOc1ccc(S(=O)(=O)NCCC(=O)O)cc1-c1nc(CC)c(CC)c(=O)[nH]1`: the remaining at 0.5 h, 1 µM in data set [4] stood at 100%. The Ratio IC50 in the data set listed under Homo sapiens was 86. The compound further yielded an IC50 in [5] of 1.69 nM. In addition, in the data set on Rattus norvegicus [6], the outcome was inactive.

In the case of `CCCOc1ccc(NC(=O)C2CCN(C)CC2)cc1-c1nc(CC)c(CC)c(=O)[nH]1`, in the data set filed under Homo sapiens, the Ratio IC50 is 24. The compound also gave an IC50 in [5] of 0.79 nM.

`CCCOc1ccc(NC(=O)C(=O)N2CCN(C)CC2)cc1-c1nc(CC)c(CC)c(=O)[nH]1`: in the data set listed under Homo sapiens, the Ratio IC50 worked out at 17. In [5], this compound came in with an IC50 of 1.55 nM.

As to `CCCOc1ccc(N)cc1-c1nc(CC)c(CC)c(=O)[nH]1`, the Ratio IC50 in the data set filed under Homo sapiens turned out to be 10. The compound also had an IC50 in data set [5] of 5.33 nM.

Consider `CCCOc1ccc(NC(=O)CN2CCCCC2)cc1-c1nc(CC)c(CC)c(=O)[nH]1`, for which the Ratio IC50 in the data set filed under Homo sapiens came out at 9. The IC50 in [5] was found to be 1.46 nM.

Take `CCCOc1ccc(S(=O)(=O)N2CCC[C@H]2C(=O)O)cc1-c1nc(CC)c(CC)c(=O)[nH]1`: the Ratio IC50 in the data set filed under Homo sapiens was 20. The compound further gave a half-maximal inhibitory concentration (IC50) in [5] of 2.02 nM.

A word on the Vdss: it is the apparent volume that relates the amount in the body to the concentration in plasma or blood. Read a high Vdss as wide distribution into tissue. `CN1CC(=O)N2[C@H](c3ccc4c(c3)OCO4)c3[nH]c4ccccc4c3C[C@@H]2C1=O` had a Vdss in [7] of 5.2 L/kg. Besides, the IC50 (at Phosphodiesterase 1; in data set [8]; against Phosphodiesterase 3; in data set [10]; in data set [11]; in [12]) was greater than 10000 nM in each case. Further, the IC50 on Phosphodiesterase 7 is on record as greater than 10000 nM. The CL in data set [9] amounted to 5.17 mL/min/kg.

With `CCCOc1ccc(NC(=O)N2CCCC2)cc1-c1nc(CC)c(CC)c(=O)[nH]1`, in the data set listed under Homo sapiens, the Ratio IC50 came to 11.

As usually defined, the half-life is the time needed for the level to fall by half in the phase considered. Low readings indicate rapid decline, high ones slow decline. Broadly, the bioavailability is the share of a dose that reaches the circulation, judged against a reference dose that is usually intravenous. Low readings indicate little systemic uptake, high ones much systemic uptake. As a reminder, the clearance is the rate of elimination divided by the concentration. Read a low clearance as inefficient removal. A word on the Cmax: it is the highest concentration seen after dosing. As a reminder, the Tmax is the time at which the peak concentration occurs. Consider `CCCc1nn(C)c2c(=O)[nH]c(-c3cc(S(=O)(=O)N4CCN(C)CC4)ccc3OCC)nc12`, for which the figures for the half-life in [13] and in data set [16] were 1.1 h and 0.65 h, respectively. In data set [14], this compound returned a bioavailability of 34%. The compound further gave a clearance in [15] of 30.5 mL/min/kg. The outcome with Rattus norvegicus [17] and with Rattus norvegicus [21] was inactive. This compound came in with a peak concentration (Cmax) in data set [18] of 76 ng/mL. In data set [19], the Tmax worked out at 1.6 h. The outcome in the data set with Rattus norvegicus [20], with Rattus norvegicus [1], in the data set on Rattus norvegicus [2] and in the data set on Rattus norvegicus [3] was Active. Also, in data set [22], the Vd was determined as 1.6 L/kg.

`CCCOc1ccc(NC(=O)C(N)=O)cc1-c1nc(CC)c(CC)c(=O)[nH]1`: in the data set filed under Homo sapiens, the Ratio IC50 worked out at 22.

Regarding `CCCOc1ccc(NC(=O)CC)cc1-c1nc(CC)c(CC)c(=O)[nH]1`, in the data set listed under Homo sapiens, the Ratio IC50 came out at 11.

For the compound `CCCOc1ccc(S(=O)(=O)N2CCN(C)CC2)cc1-c1nc(CC)c(CC)c(=O)[nH]1`, in data set [4], the remaining at 0.5 h, 1 µM worked out at 29%.

For the compound `CCCOc1ccc(S(=O)(=O)N(CCO)CCN2CCOCC2)cc1-c1nc(CC)c(CC)c(=O)[nH]1`, the Ratio IC50 in the data set listed under Homo sapiens is 10.

Regarding `CCCOc1ccc(NC(=O)CCCNC(C)=O)cc1-c1nc(CC)c(CC)c(=O)[nH]1`, the Ratio IC50 in the data set listed under Homo sapiens is 7.

Take `CCCOc1ccc(NS(C)(=O)=O)cc1-c1nc(CC)c(CC)c(=O)[nH]1`: in data set [4], the remaining at 0.5 h, 1 µM is 27%. Also, in the data set filed under Homo sapiens, the Ratio IC50 stood at 28.

For the compound `CCCOc1ccc(NC(=O)[C@@H]2CCCN2C(C)=O)cc1-c1nc(CC)c(CC)c(=O)[nH]1`, the Ratio IC50 in the data set filed under Homo sapiens came to 10. This compound also showed an IC50 in [5] of 0.54 nM.
